Test results as given in patent publication US12697326B2, “Methods of treating hepatic encephalopathy” (SALIX PHARMACEUTICALS, INC., priority 2008, dated 2026).

Assays:
[1] = tested on: breakthrough overt HE episode in subjects with HE; assay: Breakthrough overt HE episodes, second study (open-label treatment extension); type: in vivo, human
Method: Unlike the first study, subjects were not required to withdraw from the study after experiencing a breakthrough overt HE episode.
Conn scores and asterixis grades were assessed during the course of the study.
Therefore, the incidence of breakthrough overt HE over time during rifaximin therapy was evaluated. Table 24 presents breakthrough overt HE episodes by total number of HE episodes during the course of the study.

[2] = tested on: HE-related hospitalization in subjects with hepatic encephalopathy (HE); assay: Time to first HE-related hospitalization, first study; type: in vivo, human; details: for Cummulative number of events / Number of events / Probability of no HE-related hospitalization: ITT
Text: Time to first HE-related hospitalization was computed as the number of days from the first dose of rifaximin to the first hospitalization for an HE related event. The analysis of time to first HE-related hospitalization was based on the comparison of time to hospitalization between rifaximin and placebo.
FIG. 9 illustrates time to first HE-related hospitalization (e.g., hospitalization directly resulting from HE or hospitalization caused by HE) by treatment group in the ITT population in the first study. Table 19 presents estimates of the proportions of subjects who had their first HE-related hospitalization over the course of the Treatment Period and results of statistical analyses. Subjects who discontinued prior to hospitalization due to HE and prior to completion of the 6-month treatment period were censored at the time of discontinuation. […] This hazard ratio represents a 50% reduction, when compared with placebo, in the risk of hospitalization due to HE during the 6-month treatment period.
Note for FIG. 9, the survival distribution estimate on y-axis represents the proportion of subjects without HE-related hospitalization. Dashed line represents rifaximin group and solid line represents placebo group. Open circles and open triangles represent censored subjects. Subjects who discontinued prior to hospitalization due to HE and prior to completion of the 6-month treatment period were censored at the time of discontinuation. Hepatic encephalopathy-related hospitalization was recorded on the HE-related hospitalization CRF.

[3] = Continuing Rifaximin N = 70, second study
[4] = New Rifaximin N = 196, second study
[5] = Rifaximin N = 266 (all rifaximin), second study
[6] = first study placebo subjects crossed over to rifaximin in second study
[7] = second study, all rifaximin, up to 680 days
[8] = second study, continuing rifaximin group, up to 680 days
[9] = second study, new rifaximin group, up to 680 days
[10] = first HE-related hospitalization, Table 4, 550 mg BID, N = 140, Days >=168
[11] = first HE-related hospitalization, Table 4; 550 mg BID; N = 140; Days [0-28)
[12] = first HE-related hospitalization, Table 4, 550 mg BID, N = 140, Days [28-56]
[13] = first HE-related hospitalization, Table 4; 550 mg BID; N = 140; Days [56-84)
[14] = first HE-related hospitalization, Table 4; 550 mg BID; N = 140; Days [84-140)
[15] = first HE-related hospitalization, Table 4; 550 mg BID; N = 140; Days [140-168)
[16] = first HE-related hospitalization, Table 17, 550 mg BID, N = 140, Days >=168
[17] = first HE-related hospitalization, Table 17; 550 mg BID; N = 140; Days [0-28)
[18] = first HE-related hospitalization, Table 17; 550 mg BID; N = 140; Days [28-56)
[19] = first HE-related hospitalization, Table 17; 550 mg BID; N = 140; Days [56-84)
[20] = first HE-related hospitalization, Table 17; 550 mg BID; N = 140; Days [84-140)
[21] = first HE-related hospitalization, Table 17; 550 mg BID; N = 140; Days [140-168)
[22] = first study, first HE-related hospitalization, N = 140, treatment interval 0 to <28 days
[23] = first study, first HE-related hospitalization, N = 140, treatment interval 28 to <56 days
[24] = first study, first HE-related hospitalization, N = 140, treatment interval 56 to <84 days
[25] = first study, first HE-related hospitalization, N = 140, treatment interval 84 to <140 days
[26] = first study, first HE-related hospitalization, N = 140, treatment interval 140 to <168 days
[27] = first study, first HE-related hospitalization, N = 140, treatment interval ≥168 days

## CO[C@H]1/C=C/O[C@@]2(C)Oc3c(C)c(O)c4c(O)c(c5c(nc6cc(C)ccn65)c4c3C2=O)NC(=O)/C(C)=C\C=C\[C@H](C)[C@H](O)[C@@H](C)[C@@H](O)[C@@H](C)[C@H](OC(C)=O)[C@@H]1C [Rifaximin]
[1]; [3]
  Subjects with total number of HE episodes during the study: 1, %: (14.3) %
  Subjects with total number of HE episodes during the study: 2, %: (8.6) %
  Subjects with total number of HE episodes during the study: 4, %: (1.4) %
  Subjects with total number of HE episodes during the study: 6, %: (1.4) %
  Subjects with ≥1 breakthrough overt HE episode, %: (25.7) %
[1]; [4]
  Subjects with total number of HE episodes during the study: 1, %: (17.3) %
  Subjects with total number of HE episodes during the study: 2, %: (6.1) %
  Subjects with total number of HE episodes during the study: 3, %: (2.0) %
  Subjects with total number of HE episodes during the study: 4, %: (0.5) %
  Subjects with total number of HE episodes during the study: 5, %: (0.5) %
  Subjects with total number of HE episodes during the study: 10, %: (1.0) %
  Subjects with ≥1 breakthrough overt HE episode, %: (27.6) %
[1]; [5]
  Subjects with total number of HE episodes during the study: 1, value in parentheses: (16.5) 90
  Subjects with total number of HE episodes during the study: 2, value in parentheses: (6.8) 90
  Subjects with total number of HE episodes during the study: 3, value in parentheses: (1.5) 90
  Subjects with total number of HE episodes during the study: 4, value in parentheses: (0.8) 90
  Subjects with total number of HE episodes during the study: 5, value in parentheses: (0.4) 90
  Subjects with total number of HE episodes during the study: 6, value in parentheses: (0.4) 90
  Subjects with total number of HE episodes during the study: 10, value in parentheses: (0.8) 90
  Subjects with ≥1 breakthrough overt HE episode, value in parentheses: (27.1) 90
[1]; [6]
  reduction in risk of breakthrough overt HE during rifaximin treatment vs prior placebo experience: 70%
  subjects with breakthrough overt HE during rifaximin treatment (of 82): 15
[1]; second study
  subjects with 3 or more breakthrough HE episodes: Ten
[1]; [7]
  proportion of subjects with breakthrough overt HE: 27.1%
  subjects with breakthrough overt HE (of 266): 72
[1]; [8]
  proportion of subjects with breakthrough overt HE: 25.7%
  subjects with breakthrough overt HE (of 70): 18
[1]; [9]
  proportion of subjects with breakthrough overt HE: 27.6%
  subjects with breakthrough overt HE (of 196): 54
[2]; [10]
  Cumulative Occurrences of Events: 23
  Occurrences of Events: 0
  Survival: 0.8108
[2]; [11]
  Cumulative Occurrences of Events: 6
  Occurrences of Events: 6
  Survival: 1.0000
[2]; [12]
  Cumulative Occurrences of Events: 10
  Occurrences of Events: 4
  Survival: 0.9564
[2]; [13]
  Cumulative Occurrences of Events: 15
  Occurrences of Events: 5
  Survival: 0.9258
[2]; [14]
  Cumulative Occurrences of Events: 20
  Survival: 0.8848
[2]; [15]
  Cumulative Occurrences of Events: 23
  Occurrences of Events: 3
  Survival: 0.8403
[2]; [16]
  Cumulative Occurrences of Events: 19
  Occurrences of Events: 0
  Survival: 0.8475
[2]; [17]
  Cumulative Occurrences of Events: 4
  Occurrences of Events: 4
  Survival: 1.0000
[2]; [18]
  Cumulative Occurrences of Events: 8
  Occurrences of Events: 4
  Survival: 0.9711
[2]; [19]
  Cumulative Occurrences of Events: 12
  Occurrences of Events: 4
  Survival: 0.9411
[2]; [20]
  Cumulative Occurrences of Events: 17
  Occurrences of Events: 5
  Survival: 0.9094
[2]; [21]
  Cumulative Occurrences of Events: 19
  Occurrences of Events: 2
  Survival: 0.8665
[2]; [22]
  Cummulative number of events: 4
  Number of events: 4
  Probability of no HE-related hospitalization: 1.0000
[2]; [23]
  Cummulative number of events: 8
  Number of events: 4
[2]; [24]
  Cummulative number of events: 12
  Number of events: 4
[2]; [25]
  Cummulative number of events: 17
  Number of events: 5
  Probability of no HE-related hospitalization: 0.9094
[2]; [26]
  Cummulative number of events: 19
  Number of events: 2
[2]; [27]
  Cummulative number of events: 19
  Number of events: 0
[2]; first study, rifaximin group
  subjects with HE-related hospitalizations (of 140): 19
[2]; first study, 6-month treatment period
  reduction in risk of hospitalization due to HE (HE-related) compared with placebo: 50%
[2]; in vivo
  time to first HE related hospitalization vs placebo (FIG. 3, Kaplan Meier): increased time to hospitalization
